Test results as given in US20030175961A1, “Immortal micorvascular endothelial cells and uses thereof” (priority 2002, published 2003).
Entries after “also recorded” stand apart in the source; their conditions may differ.

Columns and labels:
[1] = test system: GNMEC1 (eGFP-labeled hTERT(+)HDMEC); test: In vitro angiogenic web formation on Matrigel; assay type: cell-based, human; details: GNMEC1 pretreated with COX antagonist, then plated on Matrigel; FIG. 17
Procedure: Tubule formation on Matrigel. Matrigel (Collaborative Biomedical Products) was placed on ice and allowed to thaw overnight in a darkened cold room or refrigerator. Three hundred fifty microliters of the Matrigel was layered onto a pre-chilled well of a 6-well plate and then placed in an incubator at 37° C. for one half hour for the Matrigel to solidify. About 350,000 cells in M199/15% FBS/10 U/ml heparin/16 ig/ml ECGF were then seeded onto the matrix and allowed to incubate at 37° C., 5% CO2 environment. […] To show the utility of this in vitro system, we pretreated GNMEC1 with two different cyclo-oxygenase (COX) antagonists which are known to block angiogenesis (Jones et al. 1999 Nature Medicine 5:12;1418-23) and then plated the cells on Matrigel. […] The “tubulogenic process” can be followed and quantified utilizing cell lines such as GNMEC1 and digitally-converted fluorescence microscopic images of replicate cultures. Commercially available programs in current use with other cellular applications which maybe used to perform this process include MetaMorph® (Universal Imaging Corporation®, West Chester, Pa.) and the high-throughput imaging systems of Cellomics, Inc. (Pittsburgh, Pa.).

[2] = test system: human microvessel formation by GNMEC1; test: In vivo human microvascular remodeling assay, GNMEC1 in Matrigel implants in SCID mice; set-up: species or system human cells in SCID mice; details: agents mixed with GNMEC1 in Matrigel before implantation in SCID mice; FIG. 24-27; preliminary studies
Excerpt: (§1) SCID mice were implanted with Matrigel mixtures containing either b-FGF, primary HDMEC (PD1O) or hTERT(+)HDMEC via subcutaneous injection on ventral thoracic surfaces. Implants were harvested at 2 weeks, sectioned and stained with H&E and anti-human basement membrane Type 4 collagen. […] The presence of red blood cells within these human vessels indicates host vasculature has anastamosed with the human vessels creating murine-human chimeric microvasculature.
All agents were incorporated into Matrigel by mixing cells and agents together before implantation. The effect of continuous exposure at different concentrations was not performed but would be likely to greatly accentuate the results shown in these preliminary studies.

[3] = test system: primary normal human keratinocyte (NHK) cultures; test: Fluorescent substrate assay (FSA) of net MMP activity in keratinocyte conditioned media; assay type: cell-based; details: conditioned media of PMA-treated NHK, only after APMA activation
Excerpt: The FSA is an assay system for MMP activities based on recently-developed fluorogenic substrates that utilize 7-methoxycoumarin (MOC)-labeled MMP-specific small peptides (“Knight” substrate; Knight CG. Fluorimetric Assays of Proteolytic Enzymes. Met Enzymol 1995, 248:18-34). Release of MOC from the 2,4-dinitrophenyl-quenched peptide by active MMPs results in proportional increases in fluorescence with time. Activities of recombinant MMP-2 and MMP-9 using the Knight substrate were readily detectable and yielded linear initial reaction rates over 10 minutes. Calculated initial rates of hydrolysis of the Knight substrate (4 uM) by MMP-2 (1.2 nM), MMP-9 (1.2 nM), and MMP-2 (0.6 uM) plus MMP-9 (0.6 uM) were 571.1 units/min, 208.2 units/min, and 242 units/min, respectively.
Reverse zymography confirmed the presence of TIMPs.

MMP activities = test: Fluorescent substrate assay (FSA) of MMP activity in HDMEC conditioned media; assay type: biochemical, human; details: concentrated conditioned media from HDMEC cultures +/- PMA; Knight substrate
Procedure: Replicate hTERT(+)HDMECs (PD30, 60, 90) and primary controls (PD5, PD25) are seeded at equal densities, grown to confluence and switched to EBM media (Clonetics, San Diego, Calif.) containing growth factors, but no serum, for 72 hrs. Media is collected and total protein measured (Pierce, Rockford, Ill.). […] In addition, conditioned media are analyzed by a fluorescent substrate assay (FSA).
The FSA is an assay system for MMP activities based on recently-developed fluorogenic substrates that utilize 7-methoxycoumarin (MOC)-labeled MMP-specific small peptides (“Knight” substrate; Knight CG. Fluorimetric Assays of Proteolytic Enzymes. Met Enzymol 1995, 248:18-34). Release of MOC from the 2,4-dinitrophenyl-quenched peptide by active MMPs results in proportional increases in fluorescence with time. Activities of recombinant MMP-2 and MMP-9 using the Knight substrate were readily detectable and yielded linear initial reaction rates over 10 minutes. Calculated initial rates of hydrolysis of the Knight substrate (4 uM) by MMP-2 (1.2 nM), MMP-9 (1.2 nM), and MMP-2 (0.6 uM) plus MMP-9 (0.6 uM) were 571.1 units/min, 208.2 units/min, and 242 units/min, respectively. […]

[4] = test system: host murine microvasculature; test: Host vessel invasion of Matrigel implants in SCID mice; assay type: in vivo; details: FGF-2 alone in Matrigel, no human EC
Excerpt: as §1
This procedure is based on a modification of the mouse angiogenesis model previously described^41. Two-three week old male or female SCID mice (Taconic, Germantown, N.Y.) were used as hosts for all implants. […] Passaniti, A. et al. A simple, quantitative method for assessing angiogenesis and antiangiogenic agents using reconstituted basement membrane, heparin, and fibroblast growth factor. […]
(§2) Matrigel implants were removed at 1, 2, 4 and 6 wk following xenografting, fixed in 10% buffered formalin overnight, paraffin-embedded and sectioned. […] For micromorphometry, 5 separate 20×fields were randomly selected per tissue section and the number of annular structures were counted and averaged. […] Passaniti, A. et al. A simple, quantitative method for assessing angiogenesis and antiangiogenic agents using reconstituted basement membrane, heparin, and fibroblast growth factor. […]

[5] = test system: HDMEC-GT derived microvessels; test: SCID mice xenografting of HDMEC-GT in Matrigel, human vessel quantification; assay type: in vivo, human cells in SCID mice; details: for human vessel density (human type IV collagen micromorphometry): two weeks after implantation, VEGF 2 μg/ml or FGF-2 150 ng/ml mixed with HDMEC-GT and Matrigel, only FGF-2 significant (p<0.01)
Procedure: This procedure is based on a modification of the mouse angiogenesis model previously described^41. Two-three week old male or female SCID mice (Taconic, Germantown, N.Y.) were used as hosts for all implants. Primary HDMEC and HDMEC-T were harvested, washed twice and re-suspended in serum-free EGM-2 basal medium at the concentration of 1×10^5/μl. Ten μl of cells were mixed with 0.5 ml of Matrigel on ice and the mixture was implanted in the ventral midline thoracic tissue of each mouse by subcutaneous injection using a #25 needle. Up to three separate injections could be performed on a single mouse. For some experiments, recombinant human VEGF165 (2 μg/ml) (R&D systems, Minneapolis, Minn.) or bovine FGF-2 (150 ng/ml) (R&D systems, Minneapolis, Minn.) were added to the mixture. When tumor cells (HT1080 and 293, ATCC) or primary human dermal fibroblasts 38 were injected, the procedure remained the same except basal DMEM medium replaced EGM-2. 41. Passaniti, A. et al. A simple, quantitative method for assessing angiogenesis and antiangiogenic agents using reconstituted basement membrane, heparin, and fibroblast growth factor. Lab. Invest. 67, 519-528 (1992).
as §2, with “sectioned. H&E stained thin sections were prepared at Pan-insular Histopathology laboratory (Los Gatos, Calif.). For immunofluorescence, thin sections were deparaffinized and antigens retrieved in 10 mM citric acid (pH 6.0) by microwaving sections for 2×7 min.” for “sectioned.”
For digital analysis of eGFP fluorescence images we used a novel algorithm (Moss Filter™) to determine the total amount of vascularization in each implant section. […]

primary HDMEC (control) = test: Cell surface marker expression after TNF stimulation, primary HDMEC; assay type: cell-based, human; details: TNFá stimulation for 16 hr
Procedure: (§3) The hTERT(+) HDMEC (TERT-1) line expressed uniformly high PCAM but relatively low levels of ICAM-1 (30%), VCAM-1 (1.3%) and CD34 (19.5%) at baseline. […] The latter result was consistent with experiments performed in support of the present invention that studied the same characteristics of primary HDMEC CD34 expression.
(§4) The antibodies used for flow Cytometry were anti-PECAM (Becton Dickinson), ICAM (Pharmingen), and Apo2.7 (Immunotech). […] For apo 2.7 assay, the cells were treated with TNFá+actinomycin D (AMD), LPS+cycloheximide (CHX), or UV light 16 hours prior to the experiments. One group of cells were serum starved for 40 hours. The cells are incubated with either PE conjugated primary antibody or un-conjugated primary antibody+PE conjugated secondary antibody at 37° C. The data was collected and analyzed with CellQuest (Becton Dickinson) or Coulter EPICS cell sorter.

hTERT(+) HDMEC (TERT-1) = test: Cell surface marker expression after TNF stimulation, TERT-1; assay type: cell-based, human; details: TNFá stimulation for 16 hr
Procedure: as §3, §4

CS(=O)(=O)Nc1ccc([N+](=O)[O-])cc1OC1CCCCC1 [NS-398]
angiogenic web blockade (dose-response curve) [1]: angiogenic web blockade

CCCCCCCCCCCCCC(=O)O[C@@H]1[C@@H](C)[C@@]2(O)[C@@H](C=C(CO)C[C@]3(O)C(=O)C(C)=C[C@@H]23)[C@@H]2C(C)(C)[C@]12OC(C)=O [PMA, reference compound]
effect on human microvessel formation in vivo (microvessel density, anti-human Type 4 collagen immuno-micromorphometry) [2]: angiostatic qualities
net MMP activity [3]: 10.1 units/min/ug total protein

c1cnc2c(c1)ccc1cccnc12 [1, 10 phenanthraline, reference compound]
blocking of MMP activities (MMP activities): completely blocked

FGF-2: bovine FGF-2 (R&D systems), pro-angiogenic factor
host vessel invasion of Matrigel implants [4]: marked host vessel invasion; also recorded: stimulated
host vessel invasion of Matrigel implants ([4]; listed as b-FGF): host microvasculature is readily apparent invading
effect on human microvessel formation in vivo (microvessel density, anti-human Type 4 collagen immuno-micromorphometry) [2]: greatest stimulatory effect
human vessel density (human type IV collagen micromorphometry) [5]: statistically increased human vessel density

VEGF
increased vessel density relative to controls ([5]; VEGF mixed with HDMEC-GT and Matrigel, two weeks, not statistically significant): 20-30%
human vessel density (human type IV collagen micromorphometry) [5]: increased vessel density

rTIMP-1: Tissue Inhibitor of Matrix metalloProteinases 1
blocking of MMP activities (MMP activities): partially blocked

TNFá
ICAM-1 expression (primary HDMEC (control); control primary cells): > 99%
VCAM-1 expression (primary HDMEC (control); control primary cells): 41%
CD34 expression (primary HDMEC (control); primary cells): 45%
VCAM-1 expression (hTERT(+) HDMEC (TERT-1); TERT-1 (baseline 1.3%)): 41%
CD34 expression (hTERT(+) HDMEC (TERT-1); TERT-1 (baseline 19.5%)): 1.6%
ICAM-1 expression (hTERT(+) HDMEC (TERT-1); TERT-1 (baseline 30%)): > 99%

COc1ccc2c(c1)c(CC(=O)O)c(C)n2C(=O)c1ccc(Cl)cc1 [indomethacin]
angiogenic web blockade (dose-response curve) [1]: angiogenic web blockade
